Measured values: the NIST ThermoML archive (doi:10.1021/acs.jced.7b00008)
Numbers after ± are expanded uncertainties.

Settings: Liquid, Ebulliometric method (Recirculating still)

## O=C1CCCO1 [γ-butyrolactone]
420.11 K
  vapor or sublimation pressure: 20 ± 0.6 kPa
432.89 K
  vapor or sublimation pressure: 30 ± 0.6 kPa
442.63 K
  vapor or sublimation pressure: 40 ± 0.6 kPa

## O=C1CCC(=O)O1 [succinic anhydride]
475.01 K
  vapor or sublimation pressure: 20 ± 0.6 kPa
488.81 K
  vapor or sublimation pressure: 30 ± 0.6 kPa
499.14 K
  vapor or sublimation pressure: 40 ± 0.6 kPa
